# Results taken from article PMC3961306, “Comparison of the Cancer Gene Targeting and Biochemical Selectivities of All Targeted Kinase Inhibitors Approved for Clinical Use” (PLoS ONE, 2014).
# Key:
# Assay in all cases: Kinase profiling in a biochemical assay panel (mobility shift assays and ELISA), %-inhibition at 1 μM; selectivity entropy
# [1] = target: T1, panel of more than 300 wild-type and mutant kinases (313 kinase panel) (Homo sapiens, UniProt Q12852); conditions: 1 µM
# T1 sequence (Q12852 1-859): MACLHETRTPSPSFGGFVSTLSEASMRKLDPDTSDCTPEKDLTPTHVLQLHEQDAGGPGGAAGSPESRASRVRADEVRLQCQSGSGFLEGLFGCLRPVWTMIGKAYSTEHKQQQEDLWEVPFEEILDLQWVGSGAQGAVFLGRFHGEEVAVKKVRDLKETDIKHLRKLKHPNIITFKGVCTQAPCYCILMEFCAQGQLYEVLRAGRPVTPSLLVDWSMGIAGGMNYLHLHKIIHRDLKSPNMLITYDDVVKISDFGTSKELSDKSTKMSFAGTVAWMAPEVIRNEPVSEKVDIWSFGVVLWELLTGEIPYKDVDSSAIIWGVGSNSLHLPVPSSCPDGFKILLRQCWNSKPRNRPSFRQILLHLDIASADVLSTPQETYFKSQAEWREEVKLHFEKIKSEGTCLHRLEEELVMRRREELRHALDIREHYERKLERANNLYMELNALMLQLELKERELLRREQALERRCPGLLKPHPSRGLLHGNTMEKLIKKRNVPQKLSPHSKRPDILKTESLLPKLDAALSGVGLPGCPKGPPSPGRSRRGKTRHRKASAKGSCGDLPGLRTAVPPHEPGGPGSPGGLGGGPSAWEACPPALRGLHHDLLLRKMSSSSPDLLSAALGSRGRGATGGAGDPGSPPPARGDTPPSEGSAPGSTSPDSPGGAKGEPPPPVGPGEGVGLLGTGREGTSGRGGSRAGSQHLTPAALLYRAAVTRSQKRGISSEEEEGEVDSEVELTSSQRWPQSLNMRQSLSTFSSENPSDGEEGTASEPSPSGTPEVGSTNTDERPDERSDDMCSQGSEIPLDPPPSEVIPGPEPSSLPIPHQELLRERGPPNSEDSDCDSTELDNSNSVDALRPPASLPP
# [2] = target: panel of more than 300 wild-type and mutant kinases (313 kinase panel) (Homo sapiens, UniProt P42336)
# [3] = target: panel of more than 300 wild-type and mutant kinases (313 kinase panel) (Homo sapiens, UniProt O95819)
# [4] = target: T2, panel of more than 300 wild-type and mutant kinases (313 kinase panel) (Homo sapiens, UniProt O15146)
# T2 sequence (O15146 24-869): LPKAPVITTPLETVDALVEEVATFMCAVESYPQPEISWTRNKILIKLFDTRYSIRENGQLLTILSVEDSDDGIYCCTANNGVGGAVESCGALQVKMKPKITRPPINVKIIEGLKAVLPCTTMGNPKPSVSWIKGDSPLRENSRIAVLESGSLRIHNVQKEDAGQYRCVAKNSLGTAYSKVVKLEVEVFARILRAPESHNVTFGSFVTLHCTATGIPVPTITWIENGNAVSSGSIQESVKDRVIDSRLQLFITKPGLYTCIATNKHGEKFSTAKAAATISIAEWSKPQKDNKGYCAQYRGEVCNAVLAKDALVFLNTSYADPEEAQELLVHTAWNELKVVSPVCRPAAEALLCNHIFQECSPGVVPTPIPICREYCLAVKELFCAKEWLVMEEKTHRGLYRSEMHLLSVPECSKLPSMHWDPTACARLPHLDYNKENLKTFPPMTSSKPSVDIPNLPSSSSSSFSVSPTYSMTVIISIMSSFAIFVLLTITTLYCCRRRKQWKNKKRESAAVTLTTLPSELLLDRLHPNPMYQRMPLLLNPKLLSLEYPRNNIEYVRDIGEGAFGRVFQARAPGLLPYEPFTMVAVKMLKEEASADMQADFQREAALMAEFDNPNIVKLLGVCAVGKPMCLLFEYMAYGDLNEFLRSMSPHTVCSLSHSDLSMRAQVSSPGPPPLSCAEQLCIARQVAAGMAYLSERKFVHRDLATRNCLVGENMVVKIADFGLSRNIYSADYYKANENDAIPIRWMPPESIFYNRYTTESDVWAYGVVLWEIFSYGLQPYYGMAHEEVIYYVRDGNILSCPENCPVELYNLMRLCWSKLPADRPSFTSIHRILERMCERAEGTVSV
# [5] = target: panel of more than 300 wild-type and mutant kinases (313 kinase panel) (Homo sapiens, UniProt P05129)
# [6] = target: panel of more than 300 wild-type and mutant kinases (313 kinase panel) (Homo sapiens, UniProt Q02750)
# [7] = target: T3, panel of more than 300 wild-type and mutant kinases (313 kinase panel) (Homo sapiens, UniProt Q96PN8)
# T3 sequence (Q96PN8 1-268): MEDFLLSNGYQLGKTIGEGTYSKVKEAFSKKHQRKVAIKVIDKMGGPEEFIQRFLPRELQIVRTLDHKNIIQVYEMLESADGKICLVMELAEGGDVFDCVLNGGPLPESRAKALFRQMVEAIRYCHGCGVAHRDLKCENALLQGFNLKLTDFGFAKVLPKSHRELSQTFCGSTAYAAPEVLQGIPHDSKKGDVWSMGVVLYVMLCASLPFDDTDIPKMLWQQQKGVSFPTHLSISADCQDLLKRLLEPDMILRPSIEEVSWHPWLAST
# [8] = kinase MAP2K1, compound at 1 μM
Structure (SMILES),%-inhibition of DLK [1] [%],"%-inhibition of PIK3CA/PIK3R1 ([2]; kinase PIK3CA/PIK3R1, 1 μM) [%]","%-inhibition of HGK ([3]; kinase HGK, compound at 1 μM) [%]","%-inhibition of MUSK ([4]; kinase MUSK, 1 μM) [%]","%-inhibition of PKCγ ([5]; kinase PKCγ, 1 μM) [%]","%-inhibition of MAP2K1 [6, 8] [%]","%-inhibition of TSSK3 ([7]; kinase TSSK3, compound at 1 μM) [%]",%-inhibition of HGK ([3]; 1 µM) [%],%-inhibition of MUSK ([4]; 1 µM) [%],%-inhibition of PIK3CA/PIK3R1 ([2]; 1 µM) [%],%-inhibition of PKCγ ([5]; 1 µM) [%],%-inhibition of MAP2K1 ([6]; 1 µM) [%],%-inhibition of TSSK3 ([7]; 1 µM) [%]
N#CC[C@H](C1CCCC1)n1cc(-c2ncnc3[nH]ccc23)cn1 [ruxolitinib],-0.311,42,1.09,56,6,11,-3,–,–,–,–,–,–
Cc1cn(-c2cc(NC(=O)c3ccc(C)c(Nc4nccc(-c5cccnc5)n4)c3)cc(C(F)(F)F)c2)cn1 [nilotinib],1.43,16,–,–,-1.31,-8,12,4,42,–,–,–,–
C#Cc1cccc(Nc2ncnc3cc(OCCOC)c(OCCOC)cc23)c1 [erlotinib],-1.89,–,–,–,–,–,–,50,12,11,8,26,-7
